Measured values: US7893056B2, “Peptide deformylase inhibitors” (GlaxoSmithKline LLC, priority 2007, dated 2011)
Values after ≈ are worked out from the molar mass of the structure shown. Values joined by “and” are separate entries in the source; they are usually repeats but may differ in a detail not shown here. Equal entries are not always repeated.

What was measured:
Test in all cases: Antimicrobial activity assay, broth microdilution MIC
Type in all cases: cell-based
[1] = test system: Moraxella catarrhalis 1502; details: others: individual runs; for MIC: Moraxella catarrhalis, 1502, Examples 24 and 63: median of all results obtained
Experimental: (§1) Whole-cell antimicrobial activity was determined by broth microdilution using the Clinical and Laboratory Standards Institute (CLSI, formerly NCCLS) recommended methodology (NCCLS Document M7-A6, “Methods for Dilution Susceptibility Tests for Bacteria that Grow Aerobically—Approved Standard Sixth Edition”, 2003). Compounds were tested in serial two-fold dilutions ranging from 64 to 0.06 μg/mL. A panel of 12 strains was evaluated in the assay. This panel consisted of the following laboratory strains: Staphylococcus aureus Oxford, Staphylococcus aureus WCUH29, Enterococcus faecalis 1, Enterococcus faecalis 7, Haemophilus influenzae Q1, Haemophilus influenzae NEMC1, Moraxella catarrhalis 1502, Streptococcus pneumoniae 1629, Streptococcus pneumoniae N1387, Streptococcus pneumoniae Ery2, Escherichia coli 7623 (AcrABEFD+) and Escherichia coli 120 (AcrAB−). The minimum inhibitory concentration (MIC) was determined as the lowest concentration of compound that inhibited visible growth. A mirror reader was used to assist in determining the MIC endpoint.

[2] = test system: Staphylococcus aureus WCUH29; details: others: individual runs; for MIC: Staphylococcus aureus, WCUH29, Examples 24 and 63: median of all results obtained, read-out: MIC, S. aureus WCUH29
Experimental: as §1

[3] = test system: Streptococcus pneumoniae Ery2; details: Examples 24 and 63: median of all results obtained, others: individual runs, read-out: MIC, S. pneumoniae ERY2
Experimental: as §1

[4] = test system: Enterococcus faecalis 1; details: others: individual runs; for MIC: Enterococcus faecalis, 1, Examples 24 and 63: median of all results obtained, read-out: MIC, E. faecalis I; for MIC, E. faecalis I: Examples 24 and 63: median of all results obtained
Experimental: as §1

[5] = test system: Enterococcus faecalis 7; details: others: individual runs; for MIC: Enterococcus faecalis, 7, Examples 24 and 63: median of all results obtained, read-out: MIC, E. faecalis 7; for MIC, E. faecalis 7: Examples 24 and 63: median of all results obtained
Experimental: as §1

[6] = test system: Staphylococcus aureus Oxford; details: Examples 24 and 63: median of all results obtained, others: individual runs; for MIC: Staphylococcus aureus, read-out: MIC, S. aureus Oxford
Experimental: as §1

[7] = test system: Streptococcus pneumoniae 1629; details: Examples 24 and 63: median of all results obtained, others: individual runs, read-out: MIC, S. pneumoniae 1629
Experimental: as §1

[8] = test system: Streptococcus pneumoniae N1387; details: Examples 24 and 63: median of all results obtained, others: individual runs, read-out: MIC, S. pneumoniae N1387
Experimental: as §1

[9] = test system: Escherichia coli 7623 (AcrABEFD+); details: Examples 24 and 63: median of all results obtained; others: individual runs
Experimental: as §1

[10] = Examples 24 and 63: median of all results obtained

Work on Cc1nc(NNC(=O)[C@H](CC2CCCC2)CN(O)C=O)c(F)c(N2CCN3CCOC[C@@H]3C2)n1 [Example 24, [(2R)-2-(Cyclopentylmethyl)-3-(2-{5-fluoro-6-[(9aS)-hexahydropyrazino[2,1-c][1,4]oxazin-8(1H)-yl]-2-methyl-4-pyrimidinyl}hydrazino)-3-oxopropyl]hydroxyformamide] yielded an MIC [1] of 0.375 µg/mL (≈ 0.782 µM), an MIC [2] of 0.375 µg/mL (≈ 0.782 µM) and an MIC [3] of 0.375 µg/mL (≈ 0.782 µM).
Work on C[C@@H]1CN(C)CCN1c1nc(Cl)nc(NNC(=O)[C@H](CC2CCCC2)CN(O)C=O)c1F [Example 63, [(2R)-3-(2-{2-Chloro-6-[(2R)-2,4-dimethyl-1-piperazinyl]-5-fluoro-4-pyrimidinyl}hydrazino)-2-(cyclopentylmethyl)-3-oxopropyl]hydroxyformamide] yielded an MIC [4] of 16 µg/mL (≈ 33.9 µM), an MIC [5] of 64 µg/mL (≈ 136 µM) and an MIC [1] of 0.125 µg/mL (≈ 0.265 µM). The MIC [6] was 1 µg/mL (≈ 2.12 µM), the MIC [2] was 0.5 µg/mL (≈ 1.06 µM) and the MIC [7] was 0.5 µg/mL (≈ 1.06 µM). The MIC [3] was 0.25 µg/mL (≈ 0.53 µM) and the MIC [8] was 0.25 µg/mL (≈ 0.53 µM).
Cc1nc(NNC(=O)[C@H](CC2CCCC2)CN(O)C=O)c(F)c(N2CCN(C)C[C@H]2C)n1 [Example 109, [(2R)-2-(Cyclopentylmethyl)-3-(2-{6-[(2R)-2,4-dimethyl-1-piperazinyl]-5-fluoro-2-methyl-4-pyrimidinyl}hydrazino)-3-oxopropyl]hydroxyformamide] was tested, and the MIC [4] was 64 µg/mL (≈ 142 µM), the “MIC, E. faecalis I” value [4] was 64, >64 μg/ml and the MIC [5] was over 64 µg/mL. It also gave an MIC [1] of 0.25 µg/mL (≈ 0.554 µM), an MIC [6] of 2 µg/mL (≈ 4.43 µM) and an MIC [2] of 0.5 µg/mL (≈ 1.11 µM). The MIC [7] was 0.5 µg/mL (≈ 1.11 µM), the MIC [3] was 0.25 µg/mL (≈ 0.554 µM) and the MIC [8] was 0.25 µg/mL (≈ 0.554 µM).
For CN1CCN(c2nc(Cl)nc(NNC(=O)[C@H](CC3CCCC3)CN(O)C=O)c2F)CC12CC2 [Example 172, [(2R)-3-{2-[2-Chloro-5-fluoro-6-(4-methyl-4,7-diazaspiro[2.5]oct-7-yl)-4-pyrimidinyl]hydrazino}-2-(cyclopentylmethyl)-3-oxopropyl]hydroxyformamide], the MIC [4] was 16 µg/mL (≈ 33.1 µM), the “MIC, E. faecalis 7” value [5] was 8 µg/mL and 64 µg/mL and the “MIC, E. coli 7623 AcrABEFD+” value [9] was 4 µg/mL and 16 µg/mL. For the same compound, the “MIC, M. catarrhalis 1502” value [1, 10] was ≤ 0.06 µg/mL and 0.125 µg/mL, the “MIC, S. aureus Oxford” value [6] was 2 µg/mL (≈ 4.13 µM) and the MIC [6] was 1 µg/mL (≈ 2.07 µM). The MIC [2] was 0.5 µg/mL (≈ 1.03 µM), the MIC [7] was 0.5 µg/mL (≈ 1.03 µM) and the MIC [3] was 0.125 to 0.25 µg/mL (≈ 0.258 to 0.517 µM). It also gave an MIC [8] of 0.125 µg/mL (≈ 0.258 µM).
With Cc1nc(NNC(=O)[C@H](CC2CCCC2)CN(O)C=O)c(F)c(N2CCN(C)C3(CC3)C2)n1 [Example 275, ((2R)-2-(Cyclopentylmethyl)-3-{2-[5-fluoro-2-methyl-6-(4-methyl-4,7-diazaspiro[2.5]oct-7-yl)-4-pyrimidinyl]hydrazino}-3-oxopropyl)hydroxyformamide] the MIC [4] was 32 µg/mL (≈ 69 µM), the “MIC, E. faecalis I” value [4] was 64 µg/mL (≈ 138 µM) and the “MIC, E. faecalis 7” value [5] was 16 µg/mL and 64 µg/mL. The “MIC, E. coli 7623 AcrABEFD+” value [9] was 4 µg/mL and 16 µg/mL, the MIC [1] was 0.25 µg/mL (≈ 0.539 µM) and the “MIC, S. aureus Oxford” value [6] was 4 µg/mL (≈ 8.63 µM). For the same compound, the MIC [6] was 2 µg/mL (≈ 4.31 µM), the “MIC, S. aureus WCUH29” value [2, 10] was 1 µg/mL (≈ 2.16 µM) and the MIC [2] was 0.5 µg/mL (≈ 1.08 µM). The MIC [7] was 1 µg/mL (≈ 2.16 µM), the MIC [3] was 0.5 µg/mL (≈ 1.08 µM) and the MIC [8] was 0.5 µg/mL (≈ 1.08 µM).
